{"source": "patent US20090285836A1", "about": "(NEREUS PHARMACEUTICALS, INC., priority 2008, published 2009)", "key": {"Snail": {"system": "Snail", "experiment": "Snail expression (RT-PCR, Western blot)", "conditions": "DU-145, 5 or 10 μg/ml DHMEQ, 24 h, Western blot (FIG. 21D)", "protocol": "(§4) DU-145 cells were treated with 5 or 10 μg/ml DHMEQ and protein lysates were harvested 24 h after treatment for RKIP and Snail protein determination by Western blot."}, "RKIP": {"system": "RKIP", "experiment": "RKIP expression (RT-PCR, Western blot)", "conditions": "DU-145, 5 or 10 μg/ml DHMEQ, 24 h, Western blot (FIG. 21D)", "protocol": "RKIP transcript levels were determined by RT-PCR for each time point tested (0-12 h). Normalized mRNA values were derived by dividing the mRNA value of each target gene with the corresponding quantity of GAPDH mRNA. Statistical analysis was performed using the Mann-Whitney U test. P values: treated vs untreated cells. The data represent the mean values±SEM from three independent experiments. […] Protein levels were also determined. Protein lysates were harvested at various time points and subjected to Western Blot analysis for RKIP protein. Actin was used as an internal control for loading. Blots are representative of three independent and reproducible experiments.\nas §4"}, "YY1": {"system": "YY1", "experiment": "YY1 promoter luciferase reporter and YY1 expression", "type": "cell-based", "conditions": "pYY1-luciferase reporter (FIG. 11A)", "text": "TRAIL is produced by immune cells, and is a ligand for death receptors DR4, DR5, DcR1, and DcR2. […] Controls included untransfected (UNT) and DMSO. […] RKIP may have a direct role in the NPI-0052-induced sensitization to TRAIL. […] RKIP overexpression results in DR5 upregulation and cell sensitization to TRAIL-mediated apoptosis. YY1 acts as a suppressor of DR5 transcription and is positively regulated by NF-κB. […] Transfection controls include medium only and siRNA negative control. YY1 has a direct role in tumor sensitization to TRAIL apoptosis. […] Controls include transfected with the YY1-lucificerase reporter construct only, and cells treated with 10 μg/ml DHMEQ only. […] CMV-RKIP inhibited both mRNA transcription and protein expression of YY1. YY1 is inhibited by RKIP overexpression via NF-κB down-regulation."}, "[1]": {"conditions": "single agent, mice models; cited from earlier work"}, "MDA-MB-435 breast cancer": {"system": "MDA-MB-435 breast cancer", "conditions": "read-out: LC50; cited from earlier work"}, "SK-MEL-28 melanoma": {"system": "SK-MEL-28 melanoma", "conditions": "read-out: LC50; cited from earlier work"}, "[2]": {"system": "National Cancer Institute's 60-cell-line panel", "conditions": "cited from earlier work"}, "SF-539 CNS cancer": {"system": "SF-539 CNS cancer", "conditions": "read-out: LC50; cited from earlier work"}, "DU-145 cells [3]": {"system": "DU-145 cells", "experiment": "drug titration, trypan blue exclusion assay", "type": "cell-based, human"}, "[4]": {"system": "HCT-116 human colon carcinoma", "conditions": "cited from earlier work"}, "[5]": {"system": "human colony-forming assays", "conditions": "single agent; cited from earlier work"}, "DU-145 cells [6]": {"system": "DU-145 cells", "experiment": "in vitro Matrigel cell invasion assay", "type": "cell-based, human", "conditions": "DU-145, 100 ng/ml TNF-α", "experimental": "(§1) The functional significance of the NPI-0052-induced changes in the expression profiles of the above metastasis-related gene products was expected to be reflected in the migratory and invasive cell properties.\n(§2) In vitro cell invasion and migration assays were performed using the 24/well BD Biocoat 3 micron migration chambers or 8 micron Matrigel invasion chambers (Becton Dickinson Labware, Bedford, Mass.), respectively, according to manufacturer's instructions. For both assays, cells were starved for 4-5 h prior to setting up the assay by adding basal medium supplemented with 0.1% BSA. RPMI 1640 medium containing 10% serum was used as chemoatractant. […] Data were expressed as the fold cell migration derived from the mean RFU of cell migration through the membrane towards FBS divided by the mean RFU of cell migration in the absence of FBS. […] Invaded cells through Matrigel were counted under the microscope at 40× magnification. Data were expressed as the percent invasion through the Matrigel Matrix and membrane relative to the migration through the control insert membrane.\n(§3) For migratory assays, 10^5 cells were seeded in the upper chamber, while in the lower chamber RPMI 1640 containing 10% FBS was added. […] Only labeled cells that had migrated through the pores of the membrane were detected. […]"}, "DU-145 cells [7]": {"system": "DU-145 cells", "experiment": "in vitro cell migration assay", "type": "cell-based, human", "conditions": "DU-145, 100 ng/ml TNF-α", "experimental": "as §1, §2, §3"}}}
{"molecule": "O=C(NC1=CC(=O)[C@H]2O[C@H]2[C@H]1O)c1ccccc1O", "note": "[DHMEQ]", "values": [{"measurement": "Snail protein", "setting": "Snail", "result": "Snail suppression"}, {"measurement": "RKIP protein", "setting": "RKIP", "result": "RKIP induction"}, {"measurement": "YY1 promoter luciferase activity", "setting": "YY1", "result": "inhibited YY1 luciferase activity"}]}
{"molecule": "C[C@@]12OC(=O)[C@]1([C@@H](O)[C@@H]1C=CCCC1)NC(=O)[C@@H]2CCCl", "note": "[NPI-0052, Salinosporamide A]", "values": [{"measurement": "tolerance in vivo", "setting": "[1]", "result": "good tolerance"}, {"measurement": "CC50", "setting": "MDA-MB-435 breast cancer", "result": "< 10", "unit": "nM"}, {"measurement": "CC50", "setting": "SK-MEL-28 melanoma", "result": "< 10", "unit": "nM"}, {"measurement": "LC50 differential between resistant and susceptible cell lines", "setting": "[2]", "result": "greater than 4 log"}, {"measurement": "CC50", "setting": "SF-539 CNS cancer", "result": "< 10", "unit": "nM"}, {"measurement": "ID20 drug concentration (subtoxic concentration)", "setting": "DU-145 cells [3]", "result": 50, "unit": "nM"}, {"measurement": "IC50, in vitro cytotoxicity", "setting": "[4]", "result": 0.011, "unit": "µg/mL"}, {"measurement": "toxicity in human colony-forming assays", "setting": "[5]", "result": "limited toxicity"}]}
{"molecule": "TNF-α", "values": [{"measurement": "augmentation of invasion compared to untreated cells", "setting": "DU-145 cells [6]", "result": "~10", "unit": "fold"}, {"measurement": "augmentation of migration compared to untreated cells", "setting": "DU-145 cells [7]", "result": "~10", "unit": "fold"}]}
